Laboratory results reported in ChEMBL document CHEMBL4376832, “Changing the Rules of TB-Drug Discovery” (J Med Chem, 2019).
pIC50: −log10 of the molar value. Converted amounts (≈) assume the structure as drawn.

Columns and labels:
[1] = Inhibition of ATP-synthase (unknown origin); set-up: species or system Homo sapiens
[2] = Inhibition of Mycobacterium phlei DSM-43239 C-terminal ATP-synthase assessed as reduction in luciferase activity incubated for 10 mins in presence of ATP by luminometric method; set-up: species or system Mycolicibacterium phlei DSM 43239 = CCUG 21000
[3] = test system: Mycobacterium tuberculosis; experiment: Antimycobacterial against GFP-transfected Mycobacterium tuberculosis H37Rv assessed as reduction in GFP protein expression and measured every 2 days for 12 days; format: functional

COc1nc2ccc(Br)cc2cc1[C@@H](c1ccccc1)[C@@](O)(CCN(C)C)c1cccc2ccccc12 [BEDAQUILINE]
pIC50 [1]: < 3.70
pIC50 [2]: 7.60 to 7.70

COc1ccc(S(=O)(=O)N2CCCCCC2)cc1NC(=O)Cc1nnc(O)c2ccccc12
MIC [3]: 250 µM (≈ 118 µg/mL)
